{"source": "patent US20260325508A1", "about": "“COMBINATION OF PAC-1 AND CAR T-CELL TREATMENTS” (THE BOARD OF TRUSTEES OF THE UNIVERSITY OF ILLINOIS, priority 2023, published 2026)", "test_system": "ID8Cosmc-KO", "experiment": "Survival of ID8Cosmc-KO-bearing mice, PAC-1 and 237 CAR-T combinations", "assay_type": "in vivo, mouse", "conditions": "single agent, PAC-1 100 mg/kg i.p. from day 40, three weeks 5 days ON, 2 days OFF; untreated 71 days; p<0.0001", "procedure": "FIG. 14A-B. PAC-1 enhanced efficacy of 237 CAR-T in late-stage ovarian cancer model. Survival curves of mice with established ID8Cosmc-KO tumors treated with a combination of PAC-1 and 237 CAR-T in comparison with their single-agent controls. (A) Mice with detectable tumors at day 40 post-tumor inoculation were administered with either PAC-1 (100 mg/kg) or vehicle intraperitoneally for three weeks at a “five days ON, 2 days OFF” treatment schedule. At day 60 post-tumor inoculation, mice were given either 237 CAR-T or mock T cells (5 million cells, >40% transduction efficiency) via i.p. injection. Cyclophosphamide (100 mg/kg, i.p.) were administered 24 hours prior to adoptive T cell transfer to deplete pre-existing lymphocytes. (B) Data were plotted with GraphPad Prism v10 using cumulative data across five independent experiments, with the indicated total n for each treatment arm. Median survival times are indicated; P-values were calculated using the Log-rank (Mantel-Cox) test.\nFIG. 15A-B. PAC-1 at day 50 (or day 60) and 237 CAR-T at day 60 combination treatment. […] Median survival times are indicated; P-values were calculated using the Log-rank (Mantel-Cox) test. […]\nFIG. 16A-B. 237 CAR-T at day 60 and PAC-1 at day 77 combination treatment. […] Median survival times are indicated; P-values were calculated using the Log-rank (Mantel-Cox) test. […]"}
{"smiles": "C=CCc1cccc(/C=N/NC(=O)CN2CCN(Cc3ccccc3)CC2)c1O", "note": "[PAC-1]", "values": [{"measurement": "median survival", "value": 90, "unit": "days"}]}
